# Assay results from patent US8765763B2, “Substituted piperazines as CGRP antagonists” (Boehringer Ingelheim International GmbH, priority 2009, dated 2014).
# Target: T1, human CGRP receptor (Homo sapiens, UniProt O60894+Q16602)
# T1 construct: SK-N-MC membranes (˜20 μg protein) are incubated for 180 minutes at ambient temperature; endogenous in cells; host or cells: SK-N-MC cells (membranes)
# Experiment: Binding studies with SK-N-MC cells (expressing the human CGRP receptor), 125I-iodotyrosyl-CGRP displacement on SK-N-MC membranes
# Settings: 50 pM 125I-iodotyrosyl-CGRP, 180 minutes at ambient temperature
# Experimental: A. Binding Studies with SK-N-MC Cells (Expressing the Human CGRP Receptor)
# SK-N-MC membranes (˜20 μg protein) are incubated for 180 minutes at ambient temperature with 50 pM ^125I-iodotyrosyl-Calcitonin-Gene-Related Peptide and increasing concentrations of the test substances in a total volume of 250 μl (assay buffer: 10 mM tris, 50 mM NaCl, 5 mM MgCl2, 1 mM EDTA, pH=7.4). The incubation is ended by rapid filtration through GF/B-glass fibre filters treated with polyethyleneimine (0.1%) using a cell harvester. The protein-bound radioactivity is measured using a gamma counter. Non-specific binding is defined as the bound radioactivity after the presence of 1 μM BIBN4096BS during incubation.
# The concentration binding curves are analysed using computer-aided non-linear curve fitting.
# T1 sequence (Q16602 23-461): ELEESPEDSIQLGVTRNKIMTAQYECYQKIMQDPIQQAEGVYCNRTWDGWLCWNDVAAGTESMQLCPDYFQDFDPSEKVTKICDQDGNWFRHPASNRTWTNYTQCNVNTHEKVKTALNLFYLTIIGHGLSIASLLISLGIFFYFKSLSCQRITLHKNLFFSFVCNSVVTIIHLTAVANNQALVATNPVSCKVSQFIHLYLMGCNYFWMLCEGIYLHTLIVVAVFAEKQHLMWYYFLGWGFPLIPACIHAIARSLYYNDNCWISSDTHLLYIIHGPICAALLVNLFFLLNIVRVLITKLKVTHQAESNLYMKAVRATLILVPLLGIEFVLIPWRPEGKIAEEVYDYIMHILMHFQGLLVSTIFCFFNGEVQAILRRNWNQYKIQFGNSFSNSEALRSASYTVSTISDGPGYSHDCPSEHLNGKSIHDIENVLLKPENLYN
# T1 sequence (O60894 27-148): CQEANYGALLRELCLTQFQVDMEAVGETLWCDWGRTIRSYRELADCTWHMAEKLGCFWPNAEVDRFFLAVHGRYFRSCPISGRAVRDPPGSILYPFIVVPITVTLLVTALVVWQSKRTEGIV
row,Ki,SMILES
1,1.02 nM,O=C(CN1C(=O)C2(COCCOC2)NCC1c1cc(F)cc(F)c1)Nc1cc2c(cn1)CC1(C2)C(=O)Nc2ncccc21 (stereo not shown) [Example 2]
2,0.07 nM,"O=C(CN1C(=O)C2(COCCOC2)NC[C@H]1c1cc(F)cc(F)c1)Nc1cnc2c(c1)CC1(C2)C(=O)Nc2ncccc21 (stereo partly drawn) [Example 24, 2-((R)-3-(3,5-difluorophenyl)-5-oxo-8,11-dioxa-1,4-diazaspiro[5.6]dodecan-4-yl)-N-(2′-oxo-1′,2′,5,7-tetrahydrospiro[cyclopenta[b]pyridin-6,3′-pyrrolo[2,3-b]pyridin]-3-yl)acetamide]"
3,0.72 nM,"O=C(CN1C(=O)[C@H](CC2CCCCCC2)NCC1c1cc(F)cc(F)c1)Nc1ccc2c(c1)C[C@@]1(C2)C(=O)Nc2ncccc21 (single isomer, unassigned) [Example 13 Diastereomer 1]"
4,0.07 nM,"O=C(CN1C(=O)C2(CCC3(CCOCC3)CC2)NC[C@H]1c1cc(F)cc(F)c1)Nc1ccc2c(c1)C[C@@]1(C2)C(=O)Nc2ncccc21 [Example 14, 2-((R)-3-(3,5-difluoro-phenyl)-5-oxo-12-oxa-1,4-diaza-dispiro[5.2.5.2]hexadecan-4-yl)-N-((R)-2′-oxo-1,1′,2′,3-tetrahydrospiro[inden-2,3′-pyrrolo[2,3-b]pyridin]-5-yl)acetamide]"
5,0.1 nM,"O=C(CN1C(=O)C(C2CCOCC2)NCC1c1cc(F)cc(F)c1)Nc1ccc2c(c1)C[C@@]1(C2)C(=O)Nc2ncccc21 (single isomer, unassigned) [Example 15a]"
6,0.11 nM,"O=C(CN1C(=O)C2(COCCOC2)NC[C@H]1c1ccc(F)cc1)Nc1ccc2c(c1)C[C@@]1(C2)C(=O)Nc2ncccc21 [Example 22, 2-((R)-3-(4-fluorophenyl)-5-oxo-8,11-dioxa-1,4-diazaspiro[5.6]dodecan-4-yl)-N-((R)-2′-oxo-1,1′,2′,3-tetrahydrospiro[inden-2,3′-pyrrolo[2,3-b]pyridin]-5-yl)acetamide]"
7,1.77 nM,"O=C(CN1C(=O)C2(COCCOC2)NC[C@H]1c1cc(F)cc(F)c1)Nc1ccc2c(c1)C[C@]1(C2)C(=O)Nc2ncccc21 [Example 1b, 2-((R)-3-(3,5-difluorophenyl)-5-oxo-8,11-dioxa-1,4-diazaspiro[5.6]dodecan-4-yl)-N-((S)-2′-oxo-1,1′,2′,3-tetrahydrospiro[inden-2,3′-pyrrolo[2,3-b]pyridin]-5-yl)acetamide]"
8,0.96 nM,"CC(C)(C)OC(=O)N1C[C@@H](c2ccccc2)N(CC(=O)Nc2ccc3c(c2)C[C@@]2(C3)C(=O)Nc3ncccc32)C(=O)C12COCCOC2 [Example 20, (R)-tert-butyl 5-oxo-4-(2-oxo-2-((R)-2′-oxo-1,1′,2′,3-tetrahydrospiro[inden-2,3′-pyrrolo[2,3-b]pyridin]-5-ylamino)ethyl)-3-phenyl-8,11-dioxa-1,4-diazaspiro[5.6]dodecane-1-carboxylate]"
9,0.44 nM,"O=C(CN1C(=O)C2(COCCOC2)NC[C@H]1c1ccccc1)Nc1ccc2c(c1)C[C@@]1(C2)C(=O)Nc2ncccc21 [Example 21, N—((R)-2′-oxo-1,1′,2′,3-tetrahydrospiro[inden-2,3′-pyrrolo[2,3-b]pyridin]-5-yl)-2-((R)-5-oxo-3-phenyl-8,11-dioxa-1,4-diazaspiro[5.6]dodecan-4-yl)acetamide]"
10,1.41 nM,"O=C(CN1C(=O)C2(COCCOC2)NC[C@H]1c1cc(F)cc(F)c1)Nc1cc2c(cc1Cl)CC1(C2)C(=O)Nc2ncccc21 (stereo partly drawn) [Example 19, N-(5-chloro-2′-oxo-1,1′,2′,3-tetrahydrospiro[inden-2,3′-pyrrolo[2,3-b]pyridin]-6-yl)-2-((R)-3-(3,5-difluorophenyl)-5-oxo-8,11-dioxa-1,4-diazaspiro[5.6]dodecan-4-yl)acetamide]"
11,0.03 nM,"CN1C[C@@H](c2cc(F)cc(F)c2)N(CC(=O)Nc2ccc3c(c2)C[C@@]2(C3)C(=O)Nc3ncccc32)C(=O)C12COCCOC2 [Example 17, 2-((R)-3-(3,5-difluorophenyl)-1-methyl-5-oxo-8,11-dioxa-1,4-diazaspiro[5.6]dodecan-4-yl)-N-((R)-2′-oxo-1,1′,2′,3-tetrahydrospiro[inden-2,3′-pyrrolo[2,3-b]pyridin]-5-yl)acetamide]"
12,5.4 nM,"O=C(CN1C(=O)[C@@H](CC2CCCCCC2)NCC1c1cc(F)cc(F)c1)Nc1ccc2c(c1)C[C@@]1(C2)C(=O)Nc2ncccc21 (single isomer, unassigned) [Example 16a]"
13,0.05 nM,"O=C(CN1C(=O)C2(COCCOC2)NCC1c1cccc(F)c1)Nc1ccc2c(c1)C[C@@]1(C2)C(=O)Nc2ncccc21 (stereo partly drawn) [Example 23, 2-(3-(3-fluorophenyl)-5-oxo-8,11-dioxa-1,4-diazaspiro[5.6]dodecan-4-yl)-N—((R)-2′-oxo-1,1′,2′,3-tetrahydrospiro[inden-2,3′-pyrrolo[2,3-b]pyridin]-5-yl)acetamide]"
14,0.72 nM,O=C(CN1C(=O)C(CC2CCCCCC2)NCC1c1cc(F)cc(F)c1)Nc1ccc2c(c1)CC1(C2)C(=O)Nc2ncccc21 (stereo not shown) [Example 3]
15,0.03 nM,"O=C(CN1C(=O)C2(COCCOC2)NC[C@H]1c1cc(F)cc(F)c1)Nc1ccc2c(c1)C[C@@]1(C2)C(=O)Nc2ncccc21 [Example 1a, 2-((R)-3-(3,5-difluorophenyl)-5-oxo-8,11-dioxa-1,4-diazaspiro[5.6]dodecan-4-yl)-N-((R)-2′-oxo-1,1′,2′,3-tetrahydrospiro[indene-2,3′-pyrrolo[2,3-b]pyridin]-5-yl)acetamide]"
16,0.13 nM,"O=C(CN1C(=O)[C@@H](CC2CCCCCC2)NCC1c1cc(F)cc(F)c1)Nc1ccc2c(c1)C[C@@]1(C2)C(=O)Nc2ncccc21 (single isomer, unassigned) [Example 16b]"
17,0.84 nM,"COc1cccc(C2CNC3(COCCOC3)C(=O)N2CC(=O)Nc2ccc3c(c2)C[C@@]2(C3)C(=O)Nc3ncccc32)c1 (stereo partly drawn) [Example 18, 2-(3-(3-methoxyphenyl)-5-oxo-8,11-dioxa-1,4-diazaspiro[5.6]dodecan-4-yl)-N—((R)-2′-oxo-1′,2′,3-tetrahydrospiro[inden-2,3′-pyrrolo[2,3-b]pyridin]-5-yl)acetamide]"
18,0.39 nM,"O=C(CN1C(=O)C(C2CCOCC2)NCC1c1cc(F)cc(F)c1)Nc1ccc2c(c1)C[C@@]1(C2)C(=O)Nc2ncccc21 (single isomer, unassigned) [Example 15b]"
19,0.71 nM,"O=C(CN1C(=O)[C@H](CC2CCCCCC2)NCC1c1cc(F)cc(F)c1)Nc1ccc2c(c1)C[C@@]1(C2)C(=O)Nc2ncccc21 (single isomer, unassigned) [Example 13 Diastereomer 2]"
